Laboratory results published in the NIST ThermoML archive (doi:10.1016/j.jct.2009.06.021).
± gives the expanded uncertainty stated by the source.

Test: xn = mol fraction of the nth substance listed
Settings: for surface tension liquid-gas: Maximal bubble pressure; for mass density: 101 kPa, Liquid, Vibrating tube method

With `ClC(Cl)(Cl)Cl` [tetrachloromethane] + C[S+](C)[O-] the surface tension liquid-gas (298.15 K, x1 = 0.0994) was 38.6 ± 0.4 mN/m, the surface tension liquid-gas (298.15 K, x1 = 0.1969) was 34.6 ± 0.3 mN/m and the surface tension liquid-gas (298.15 K, x1 = 0.2513) was 32.9 ± 0.3 mN/m. The surface tension liquid-gas (298.15 K, x1 = 0.3299) was 30.8 ± 0.3 mN/m, the surface tension liquid-gas (298.15 K, x1 = 0.383) was 29.7 ± 0.3 mN/m and the surface tension liquid-gas (298.15 K, x1 = 0.5159) was 27.8 ± 0.3 mN/m. For the same compound, the surface tension liquid-gas (298.15 K, x1 = 0.6043) was 26.8 ± 0.3 mN/m, the surface tension liquid-gas (298.15 K, x1 = 0.6909) was 25.9 ± 0.3 mN/m and the surface tension liquid-gas (298.15 K, x1 = 0.7493) was 25.8 ± 0.3 mN/m. It also gave a surface tension liquid-gas (298.15 K, x1 = 0.8663) of 25.4 ± 0.3 mN/m, a mass density (298.15 K, x1 = 0.0674) of 1141.26 ± 0.37 kg/m3 and a mass density (298.15 K, x1 = 0.101) of 1163.32 ± 0.39 kg/m3. The mass density (298.15 K, x1 = 0.1349) was 1185.11 ± 0.4 kg/m3, the mass density (298.15 K, x1 = 0.1643) was 1203.27 ± 0.42 kg/m3 and the mass density (298.15 K, x1 = 0.2133) was 1232.98 ± 0.44 kg/m3. It also gave a mass density (298.15 K, x1 = 0.3045) of 1287.19 ± 0.48 kg/m3, a mass density (298.15 K, x1 = 0.4641) of 1370.58 ± 0.56 kg/m3 and a mass density (298.15 K, x1 = 0.6022) of 1433.93 ± 0.61 kg/m3. For the same compound, the mass density (298.15 K, x1 = 0.7132) was 1481.07 ± 0.66 kg/m3, the mass density (298.15 K, x1 = 0.7604) was 1499.6 ± 0.68 kg/m3 and the mass density (298.15 K, x1 = 0.8683) was 1539.93 ± 0.72 kg/m3. For the same compound, the mass density (298.15 K, x1 = 0.913) was 1555.64 ± 0.73 kg/m3, the surface tension liquid-gas (303.15 K, x1 = 0.0994) was 38 ± 0.4 mN/m and the surface tension liquid-gas (303.15 K, x1 = 0.1969) was 34.2 ± 0.3 mN/m. The surface tension liquid-gas (303.15 K, x1 = 0.2513) was 32.6 ± 0.3 mN/m, the surface tension liquid-gas (303.15 K, x1 = 0.3299) was 30.4 ± 0.3 mN/m and the surface tension liquid-gas (303.15 K, x1 = 0.383) was 29.2 ± 0.3 mN/m. The surface tension liquid-gas (303.15 K, x1 = 0.5159) was 27.1 ± 0.3 mN/m, the surface tension liquid-gas (303.15 K, x1 = 0.6043) was 26.2 ± 0.3 mN/m and the surface tension liquid-gas (303.15 K, x1 = 0.6909) was 25.3 ± 0.3 mN/m. It also gave a surface tension liquid-gas (303.15 K, x1 = 0.7493) of 25.1 ± 0.3 mN/m, a surface tension liquid-gas (303.15 K, x1 = 0.8663) of 24.6 ± 0.3 mN/m and a mass density (303.15 K, x1 = 0.0674) of 1135.93 ± 0.37 kg/m3. It also gave a mass density (303.15 K, x1 = 0.101) of 1157.83 ± 0.38 kg/m3, a mass density (303.15 K, x1 = 0.1349) of 1179.45 ± 0.4 kg/m3 and a mass density (303.15 K, x1 = 0.1643) of 1197.47 ± 0.41 kg/m3. For the same compound, the mass density (303.15 K, x1 = 0.2133) was 1226.93 ± 0.43 kg/m3, the mass density (303.15 K, x1 = 0.3045) was 1280.68 ± 0.48 kg/m3 and the mass density (303.15 K, x1 = 0.4641) was 1363.35 ± 0.55 kg/m3. It also gave a mass density (303.15 K, x1 = 0.6022) of 1425.99 ± 0.61 kg/m3, a mass density (303.15 K, x1 = 0.7132) of 1472.61 ± 0.65 kg/m3 and a mass density (303.15 K, x1 = 0.7604) of 1490.94 ± 0.67 kg/m3. It also gave a mass density (303.15 K, x1 = 0.8683) of 1530.74 ± 0.71 kg/m3, a mass density (303.15 K, x1 = 0.913) of 1546.21 ± 0.72 kg/m3 and a surface tension liquid-gas (308.15 K, x1 = 0.0994) of 37.4 ± 0.4 mN/m. The surface tension liquid-gas (308.15 K, x1 = 0.1969) was 33.4 ± 0.3 mN/m, the surface tension liquid-gas (308.15 K, x1 = 0.2513) was 31.8 ± 0.3 mN/m and the surface tension liquid-gas (308.15 K, x1 = 0.3299) was 29.8 ± 0.3 mN/m. For the same compound, the surface tension liquid-gas (308.15 K, x1 = 0.383) was 28.7 ± 0.3 mN/m, the surface tension liquid-gas (308.15 K, x1 = 0.5159) was 26.6 ± 0.3 mN/m and the surface tension liquid-gas (308.15 K, x1 = 0.6043) was 25.6 ± 0.3 mN/m. For the same compound, the surface tension liquid-gas (308.15 K, x1 = 0.6909) was 24.7 ± 0.3 mN/m, the surface tension liquid-gas (308.15 K, x1 = 0.7493) was 24.5 ± 0.3 mN/m and the surface tension liquid-gas (308.15 K, x1 = 0.8663) was 24.2 ± 0.3 mN/m. The mass density (308.15 K, x1 = 0.0674) was 1127.96 ± 0.35 kg/m3, the mass density (308.15 K, x1 = 0.101) was 1150.79 ± 0.38 kg/m3 and the mass density (308.15 K, x1 = 0.1349) was 1172.11 ± 0.39 kg/m3. For the same compound, the mass density (308.15 K, x1 = 0.1643) was 1192.66 ± 0.41 kg/m3, the mass density (308.15 K, x1 = 0.2133) was 1222.1 ± 0.43 kg/m3 and the mass density (308.15 K, x1 = 0.3045) was 1273.53 ± 0.47 kg/m3. The mass density (308.15 K, x1 = 0.4641) was 1355.26 ± 0.54 kg/m3, the mass density (308.15 K, x1 = 0.6022) was 1418.04 ± 0.6 kg/m3 and the mass density (308.15 K, x1 = 0.7132) was 1464.13 ± 0.64 kg/m3. It also gave a mass density (308.15 K, x1 = 0.7604) of 1482.25 ± 0.66 kg/m3, a mass density (308.15 K, x1 = 0.8683) of 1521.44 ± 0.7 kg/m3 and a mass density (308.15 K, x1 = 0.913) of 1536.79 ± 0.71 kg/m3. For the same compound, the surface tension liquid-gas (313.15 K, x1 = 0.0994) was 36.8 ± 0.4 mN/m, the surface tension liquid-gas (313.15 K, x1 = 0.1969) was 33 ± 1 mN/m and the surface tension liquid-gas (313.15 K, x1 = 0.2513) was 31.4 ± 0.3 mN/m. For the same compound, the surface tension liquid-gas (313.15 K, x1 = 0.3299) was 29.2 ± 0.3 mN/m, the surface tension liquid-gas (313.15 K, x1 = 0.383) was 28.1 ± 0.3 mN/m and the surface tension liquid-gas (313.15 K, x1 = 0.5159) was 26 ± 1 mN/m. The surface tension liquid-gas (313.15 K, x1 = 0.6043) was 25 ± 0.3 mN/m, the surface tension liquid-gas (313.15 K, x1 = 0.6909) was 24.3 ± 0.3 mN/m and the surface tension liquid-gas (313.15 K, x1 = 0.7493) was 23.9 ± 0.3 mN/m. For the same compound, the surface tension liquid-gas (313.15 K, x1 = 0.8663) was 23.7 ± 0.3 mN/m, the mass density (313.15 K, x1 = 0.0499) was 1116.12 ± 0.34 kg/m3 and the mass density (313.15 K, x1 = 0.101) was 1146.87 ± 0.37 kg/m3. The mass density (313.15 K, x1 = 0.1349) was 1168.13 ± 0.39 kg/m3, the mass density (313.15 K, x1 = 0.1643) was 1185.85 ± 0.4 kg/m3 and the mass density (313.15 K, x1 = 0.2133) was 1214.87 ± 0.42 kg/m3. For the same compound, the mass density (313.15 K, x1 = 0.3045) was 1267.49 ± 0.47 kg/m3, the mass density (313.15 K, x1 = 0.4641) was 1348.78 ± 0.54 kg/m3 and the mass density (313.15 K, x1 = 0.6022) was 1410.05 ± 0.59 kg/m3. For the same compound, the mass density (313.15 K, x1 = 0.7132) was 1455.61 ± 0.63 kg/m3, the mass density (313.15 K, x1 = 0.7604) was 1473.5 ± 0.65 kg/m3 and the mass density (313.15 K, x1 = 0.8683) was 1512.23 ± 0.69 kg/m3. The mass density (313.15 K, x1 = 0.913) was 1527.34 ± 0.7 kg/m3.
